Several values for one entry are separate records, joined by “and”; a condition that tells them apart may be missing. Equal values may be shown once. Read-outs that look alike come from different tables or passages of the source. Some results are limits rather than exact numbers.

We go through eight molecules from paper PMC4900588, “Amphipathic β^2,2-Amino Acid Derivatives Suppress Infectivity and Disrupt the Intracellular Replication Cycle of Chlamydia pneumoniae” (PLoS ONE, 2016).

Data set [1] relates to C. pneumoniae. Description: Delayed administration assay. The settings on record: for reduction in inclusion vacuole counts: 3 μM, added at 6 hpi or later; for inhibition at 3 µM: Chlamydia pneumoniae, added at 2 hpi, read-out: inhibition of inclusion vacuole counts. The format is cell-based, Chlamydia pneumoniae. The method, then: (§1) For all experiments applying immunofluorescence, HL cells were seeded in 24-well plates with coverslips at density of 4 x 10^5 cells/well and incubated overnight before infection. The cells were inoculated with C. pneumoniae at multiplicity of infection (MOI) 0.2 in the cell growth media supplemented with 1 μg/ml cycloheximide to enhance chlamydial growth. The inoculated cultures were centrifuged at 550 g at 4°C for 1 h and incubated at 37°C for 1 h. Inocula were removed, fresh medium was added into wells and the plates were incubated for 70 h. Afterwards the cultures were fixed with methanol and the coverslips were stained with Pathfinder Chlamydia cell culture confirmation system (Bio-Rad) based on a genus-specific anti-LPS antibody to visualize the host cells and chlamydial inclusions. Detailed protocols for the infection and staining can be found in [29]. Unless otherwise stated in the text, the derivatives were added into the culture medium at 2 hours post infection (hpi), i.e., at the time when inocula were removed. […] DMSO concentration was adjusted to 0.1% in all experiments.
HL cells were infected as described above and treated with derivatives at concentrations of 3 μM in order to cause inhibition of infection above 50%. The treatment of the infected cells was delayed by 4, 10 and 22 h and inclusions counts were subsequently performed as described above.

In data set [2] the test system is C. pneumoniae EBs. Description: Elementary body infectivity assay. The format is cell-based. The conditions noted are these: Chlamydia pneumoniae; EBs treated with 5 μM for 1 h before inoculation of HL cells; read-out: inhibition of EB infectivity. The method, then: C. pneumoniae EBs were suspended into the HL cell growth medium supplemented with cycloheximide at 400 000 inclusion forming units (IFU)/ml and exposed to 5 μM of the derivatives A1—A6 for 1 h at 4°C. Immediately afterwards, aliquots of the EBs suspensions were used to infect HL cell monolayers as described above (MOI 0.2), resulting in typically 40–60 inclusions per eye field in nontreated control infections.

Data set [3] concerns C. pneumoniae inclusions in HL cells. The format is cell-based, Chlamydia pneumoniae. The conditions noted are these: 2.5 μM added at 2 hpi. How it is done: HL cells were seeded in 6-well plates at 2 x 10^6 cells per well and cultured overnight. The cell monolayers were infected with C. pneumoniae (MOI 1) and treated with 2.5 μM of derivative A2 by adding it to the culture medium at 2 hpi based on findings in the dose-response assay. Untreated and uninfected HL control cells were incubated concurrently. The cells were pre-fixed at 24, 48 and 72 hpi with Karnovsky's fixative at 4°C, overnight. The samples were further processed for TEM as described in [30].

The test system of data set [4] is C. pneumoniae strain K7. Nature of the data set: C. pneumoniae inclusion count inhibition in infected HL cells (immunofluorescence). The format is cell-based, Chlamydia pneumoniae. The settings on record: for inhibition at 5 µM / reduction in inclusion counts / inhibition against C. pneumoniae: added at 2 hpi, 72 h, 5 μM; for inhibition at 5 µM / IC50 / reduction in inclusion counts / inhibition against C. pneumoniae: strain K7, HL cells; for inhibition at 5 µM: read-out: reduction in inclusion counts / inhibition against C. pneumoniae; for IC50: read-out: IC50 (inclusion counts, dose-response); for concentration that inhibits infectivity and interferes with inclusions: human epithelial HL cells. The method, then:
Human epithelial HL cells were grown in a RPMI1640 medium supplemented with 7.5% fetal bovine serum (FBS), 2 mM L-glutamine and 20 μg/ml gentamicin sulfate. A clinical C. pneumoniae isolate Kajaani 7 (K7), originally isolated from a young person suffering from pneumonia was obtained from Professor Pekka Saikku (Department of Medicinal Microbiology, Institute of Diagnostics, University of Oulu, Finland) and a cardiovascular C. pneumoniae isolate CV-6 was obtained from Professor Matthias Maass (Paracelsus Medical University, Salzburg, Austria). The reference strains CWL-029 (VR-1310) and AR-39 (ATCC 53592) were obtained from American Type Culture Collection (ATCC). All strains were propagated in HL cells as previously described. The K7 strain was used in all studies whereas CV-6 and the ATCC reference strains were used to confirm our initial compound screening data.
as §1
All experiments were carried out as four replicates in minimum and the inclusion counts were determined as mean ± SEM of 4 eye fields per coverslip. For statistical analysis GraphPad Prism software v. 5.0 and Student’s t-test (p < 0.05) were applied.

The test system of data set [5] is C. pneumoniae. Nature of the data set: Infectious progeny assay. The format is cell-based, Chlamydia pneumoniae. The conditions noted are these: for inclusion vacuole counts in the second passage of infection vs untreated control: 5 μM; for suppression of infectious progeny production: administered at 6 hpi or later (data not shown). The method, then: To measure the effects of the β^2,2-amino acid derivatives on production of new infectious progeny by C. pneumoniae, HL cells were infected with C. pneumoniae as described above in the presence of the derivatives (at a concentration of 5 μM). At 72 hpi, medium was removed from the wells and 200 μl fresh medium was added. The cells were scraped off and then further lysed by vortexing with glass beads, and the lysates were used to infect fresh HL cell monolayers. Inclusion counts in the second passage of infection were determined with immunofluorescent staining as described above, and control wells fixed and stained after the first infectious cycle were used as internal controls.

Data set [6] concerns HL cells. Description: Resazurin cell viability assay. The format is cell-based, human. The settings on record: 5 μM, 72 h. The method, then: (§2) HL cells were seeded into 96-well plates at density […] and incubated overnight before starting the exposure. The β^2,2-amino acid derivatives were added at concentrations of 5 μM either in the presence or absence of 1 μg/ml cycloheximide in a final volume of 200 μl and the plates were incubated for 72 h. The resazurin assay was performed as described in Karlsson et al..

A short description of data set [7]: Resazurin cell viability assay. The format is cell-based, human. The conditions noted are these: human, HL cells. The method, then: as §2

As for `NCCNC(=O)C(CN)(Cc1ccc2ccccc2c1)Cc1ccc2ccccc2c1` [A2], in data set [1], the “reduction in inclusion vacuole counts” value was 20–30% and the inhibition at 3 µM is approximately 80%. In data set [2], the inhibition at 5 µM is not above 50%. Further, the “TEM finding in infected HL cells” value in data set [3] (24 hpi) is on record as “affected inclusion vacuoles were visible”. Besides, in data set [3] (48 hpi), the “TEM finding in infected HL cells” value is “smaller inclusions, which only contained fragments of RBs and EBs”. Moreover, in data set [3] (72 hpi), the “TEM finding in infected HL cells” value was “no RBs or EBs were present”. In addition, in data set [4] (Chlamydia pneumoniae), the inhibition at 5 µM was 100%; the concentration for half-maximal inhibition (IC50) is 2 µM and 1.3 µg/mL. Moreover, in data set [4], the “concentration that inhibits infectivity and interferes with inclusions” value was “below 5 μM”. Moreover, in data set [5], the “inclusion vacuole counts in the second passage of infection vs untreated control” value is “significantly lower” and the “suppression of infectious progeny production” value was “neither A1 nor A2 suppressed C. pneumoniae infectious progeny production”. Further, in data set [6], the “effect on host HL cell viability (in words)” value (shortened to “effect”) is given as “no substantial effect on host HL cell viability”.
For the molecule `CN(C)CCOC(=O)C(CN)(Cc1ccc(C(F)(F)F)cc1)Cc1ccc(C(F)(F)F)cc1` [A4], the inhibition at 5 µM amounted to 20% in data set [2] and 23.2% in data set [4] (Chlamydia pneumoniae). Also, the “effect” value in data set [6] is listed as “no cytotoxic effects”.
With `CC[C@H]1OC(=O)[C@H](C)[C@@H](O[C@H]2C[C@@](C)(OC)[C@@H](O)[C@H](C)O2)[C@H](C)[C@@H](O[C@@H]2O[C@H](C)C[C@H](N(C)C)[C@H]2O)[C@](C)(O)C[C@@H](C)CN(C)[C@H](C)[C@@H](O)[C@]1(C)O` [azithromycin, reference compound], the inhibition at 0.02 µM in data set [4] (Chlamydia pneumoniae, K7, positive control, 20 nM, read-out: inhibition in C. pneumoniae inclusion counts) was 95 to 98%.
With `CN(C)CCOC(=O)C(CN)(Cc1ccc2ccccc2c1)Cc1ccc2ccccc2c1` [A5], the inhibition at 5 µM came to 66% in data set [2] and 89.8% in data set [4] (Chlamydia pneumoniae). Besides, the “reduction of HL cell viability” value in data set [6] is recorded as 35.6%.
With `CC(C)(C)c1ccc(CC(CN)(Cc2ccc(C(C)(C)C)cc2)C(=O)NCCN)cc1` [A3], in data set [2], the inhibition at 5 µM worked out at 77%. Besides, in data set [4], the “reduction in inclusion counts / inhibition against C. pneumoniae” value was “full inhibition”. This molecule also showed a viability at 72 h, 5 µM in data set [7] of 30.6%.
For `CN(C)CCOC(=O)C(CN)(Cc1ccc(C(C)(C)C)cc1)Cc1ccc(C(C)(C)C)cc1` [A6], in that order: 90%, “full inhibition” and 18.4%.
With `CO[C@H]1/C=C/O[C@@]2(C)Oc3c(C)c(O)c4c(O)c(c(/C=N/N5CCN(C)CC5)c(O)c4c3C2=O)NC(=O)/C(C)=C\C=C\[C@H](C)[C@H](O)[C@@H](C)[C@@H](O)[C@@H](C)[C@H](OC(C)=O)[C@@H]1C` [Rifampicin, reference compound], the inhibition at 0.012 µM in data set [4] (Chlamydia pneumoniae, K7, positive control, 12 nM, read-out: inhibition in C. pneumoniae inclusion counts) is 95 to 98%.
`NCCNC(=O)C(CN)(Cc1ccc(C(F)(F)F)cc1)Cc1ccc(C(F)(F)F)cc1` [A1]: in data set [1], the “reduction in inclusion vacuole counts” value is 10–20% and the inhibition at 3 µM is approximately 70%. For the same molecule, in data set [2], the inhibition at 5 µM was not above 50%. Also, in data set [4] (Chlamydia pneumoniae), the inhibition at 5 µM was found to be 95.6%; the concentration for half-maximal inhibition (IC50) is 2 µM and 1.4 µg/mL. In addition, in data set [4], the “concentration that inhibits infectivity and interferes with inclusions” value is on record as “below 5 μM”. In data set [5], the “inclusion vacuole counts in the second passage of infection vs untreated control” value is on record as “significantly lower” and the “suppression of infectious progeny production” value is “neither A1 nor A2 suppressed C. pneumoniae infectious progeny production”. Moreover, in data set [6], the “effect” value is “no substantial effect on host HL cell viability”.
